In patent publication EP4653431A1, “PYRAZOLE DERIVATIVE, AND PHARMACEUTICALLY ACCEPTABLE SALT, STEREOISOMER, PHARMACEUTICAL COMPOSITION AND USE THEREOF” (Starg (Wuhan) Pharmaceutical Technology Co., Ltd, priority 2023, dated 2024):
Structures can show the parent of a compound that is named as a salt. Where two headings read alike, the source gives them in different places.

What was measured:
CDK1/cyclin B1 = biological target: T1, CDK1/cyclin B1 (Homo sapiens, UniProt P06493); test: In vitro CDK1/cyclin B1 enzyme activity assay (TR-FRET); type: biochemical
T1 construct: purchased Carna Biosciences
Protocol: CDK1/cyclin B1 was purchased from Carna Biosciences. Ulight-4E-BP1 peptide, Eu-anti-phospho-tyrosine antibody, and 1X detection buffer were purchased from PerkinElmer. High-purity ATP was purchased from Promega. EDTA was purchased from Sigma. Nivo multimode plate reader (PerkinElmer) was used.
Preparation of Kinase Buffer Solution: The kinase buffer solution consisted 50 mM HEPES, 1 mM EDTA, 10 mM MgCl2, and 0.01% Brij-35, with pH of 7.4.
(§1) The stop solution was prepared by mixing 100 µL of 1 M EDTA stock solution with […] of 1X detection buffer solution and 1725 µL of distilled water.
The enzyme, Ulight-4E-BP1 peptide, ATP, and the inhibitor were diluted using the kinase buffer solution.
The Eu-anti-phospho-tyrosine antibody was diluted to a concentration of 8 nM/L using the detection buffer solution.
The final concentration of DMSO was 4%, and the experiment was set up with duplicate wells. […] The reaction system was incubated at 25 °C for 60 minutes. After the reaction, 5 µL of the stop solution was added to each well, and further reacted at 25 °C for 5 minutes to terminate the reaction. Then 5 µL of Eu-anti-phospho-tyrosine antibody dilution was added to each well, and the mixture was incubated at 25 °C for 60 minutes.
The IC50 value was obtained by fitting the data to a four-parameter curve (using log(inhibitor) vs. response -- Variable slope model in GraphPad Prism).

CDK2/cyclin E1 = biological target: T2, CDK2/cyclin E1 (Homo sapiens, UniProt P24941); test: In vitro CDK2/cyclinE enzyme activity assay (TR-FRET); type: biochemical; settings: CDK2/cyclin E1, 1 mM ATP, 120 min at 25 °C
T2 construct: purchased SignalChem
Protocol: CDK2/cyclin E1 was purchased from SignalChem. Ulight-4E-BP1 peptide, Eu-anti-phospho-tyrosine antibody, and 1X detection buffer solution were purchased from PerkinElmer. High-purity adenosine triphosphate (ATP) was purchased from Promega. Ethylenediaminetetraacetic acid (EDTA) was purchased from Sigma. Nivo multimode plate reader (PerkinElmer) was used.
Preparation of Kinase Buffer Solution: The kinase buffer solution consisted 50 mM HEPES, 1 mM EDTA, 10 mM MgCl2, and 0.01% Brij-35, with pH of 7.4. 2.38 g HEPES, 58 mg EDTA, 406 mg MgCl2, and 20 mg Brij-35 were added to 200 mL buffer, and the pH was adjusted to 7.4.
as §1
The enzyme, Ulight-4E-BP1 peptide, ATP, and the inhibitor were diluted using the kinase buffer solution. The Eu-anti-phospho-tyrosine antibody was diluted to a concentration of 8 nM/L using the detection buffer solution. The test compound was serially diluted 5-fold using a multichannel pipette to the 8th concentration, i.e., from 4 µM to 0.0512 nM. The final concentration of DMSO was 4%, and the experiment was set up with duplicate wells. 2.5 µL of each gradient concentration of the inhibitor, 5 µL of CDK2/cyclin E1 enzyme (10 ng), and 2.5 µL of a mixture of substrate and ATP (4 mM ATP, 100 nM Ulight-4E-BP1 peptide) were added to a microplate, resulting in a final concentration gradient of the compound from 1 µM to 0.0128 nM, with final ATP and substrate concentrations of 1 mM and 25 nM, respectively. The reaction system was incubated at 25 °C for 120 minutes. After the reaction, 5 µL of the stop solution was added to each well, and further reacted at 25 °C for 5 minutes to terminate the reaction. Then 5 µL of Eu-anti-phospho-tyrosine antibody dilution was added to each well, and the mixture was reacted at 25 °C for 60 minutes. Data were collected using the PerkinElmer Nivo multimode plate reader in TR-FRET mode (excitation wavelength: 320 nm; emission wavelengths: 615 nm and 665 nm).
(§2) The raw data were converted to inhibition rates according to the equation (Sample-Min)/(Max-Min)×100%. The IC50 value was obtained by fitting the data to a four-parameter curve (using log(inhibitor) vs. response -- Variable slope model in GraphPad Prism).

OVCAR-3 cells = test: In vitro OVCAR-3 cell viability assay (CellTiter-Glo); type: cell-based; settings: Homo sapiens, OVCAR-3, 168 h, 7 days incubation
Protocol: 1640 medium, fetal bovine serum, and penicillin/streptomycin antibiotics were purchased from Wisent. CellTiter-Glo (cell viability chemiluminescence assay reagent) was purchased from Promega. The OVCAR-3 cell line was purchased from Nanjing Cobioer Biosciences Co., Ltd. Envision multimode plate reader (PerkinElmer) was used.
OVCAR-3 cells were seeded into a white 384-well plate, with 40 µL of cell suspension containing 300 OVCAR-3 cells per well. The cell plate was incubated overnight in a CO2 incubator.
The test compound was serially diluted 5-fold using a multichannel pipette to the 8th concentration, i.e., from 2000 µM to 0.00512 µM. The experiment was set up with duplicate wells. 78 µL of culture medium was added to an intermediate plate, and 2 µL per well of the gradient-diluted compound was transferred to the corresponding position in the intermediate plate. After mixing, 10 µL per well of the mixture was transferred to the cell plate. The concentration range of the compound transferred to the cell plate was from 10 µM to 0.026 nM. The cell plate was incubated in a CO2 incubator for 7 days. Another cell plate was prepared, and the signal value was read on the day of compound addition to serve as the maximum value (Max in the equation below) for data analysis. 10 µL per well of CellTiter-Glo reagent was added to the cell plate, and the cell plate was incubated at room temperature for 10 minutes to stabilize the luminescence signal. The signal was read using the multimode plate reader.
10 µL per well of CellTiter-Glo reagent was added to the cell plate, and the cell plate was incubated at room temperature for 10 minutes to stabilize the luminescence signal. The signal was read using the multimode plate reader.
as §2, with “using” for “according to”, “Prism). Table 1 provides the inhibitory activity of the compounds of the present application against OVCAR-3 cell proliferation.” for “Prism).”

[1] = CDK1/cyclin B1, 1 mM ATP, 60 min at 25 °C, Table 1, read-out: CDK1 IC50
[2] = exact values stated in the text below Table 1, read-out: IC50 against CDK1

T1 sequence (P06493 whole entry): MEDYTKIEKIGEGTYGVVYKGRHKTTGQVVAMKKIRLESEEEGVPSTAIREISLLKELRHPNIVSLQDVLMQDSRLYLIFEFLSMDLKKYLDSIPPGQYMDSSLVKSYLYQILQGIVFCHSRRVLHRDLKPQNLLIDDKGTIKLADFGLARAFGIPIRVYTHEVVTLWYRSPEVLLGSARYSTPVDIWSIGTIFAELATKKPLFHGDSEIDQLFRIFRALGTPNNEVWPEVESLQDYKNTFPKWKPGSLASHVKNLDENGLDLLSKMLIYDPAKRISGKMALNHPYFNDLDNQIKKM
T1 sequence (P14635 whole entry partner): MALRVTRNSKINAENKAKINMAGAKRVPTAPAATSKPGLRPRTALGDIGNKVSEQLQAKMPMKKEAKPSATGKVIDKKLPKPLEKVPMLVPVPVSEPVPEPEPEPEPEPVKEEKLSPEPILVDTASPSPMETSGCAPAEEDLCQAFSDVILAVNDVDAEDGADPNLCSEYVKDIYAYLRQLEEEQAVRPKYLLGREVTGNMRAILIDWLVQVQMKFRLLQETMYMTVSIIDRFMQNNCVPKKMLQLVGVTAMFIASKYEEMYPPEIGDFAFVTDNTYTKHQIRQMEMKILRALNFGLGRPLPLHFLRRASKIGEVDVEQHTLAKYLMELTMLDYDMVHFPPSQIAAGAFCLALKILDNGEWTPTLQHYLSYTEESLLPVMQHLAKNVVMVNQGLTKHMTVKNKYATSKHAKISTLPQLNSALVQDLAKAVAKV

IC50 (CDK1/cyclin B1; [1]) [nM]	IC50 (CDK1/cyclin B1; [2]) [nM]	IC50 (CDK2/cyclin E1) [nM]	IC50 (OVCAR-3 cells) [nM]	Compound
> 1000	3490	7.4	104	CON(C)Cc1nn2ccnc(Nc3cc([C@H]4CC[C@@H](OC(=O)NC(C)C)C4)[nH]n3)c2c1F [Compound 6]
> 1000	1500	6.8	309	CONCc1nn2ccnc(Nc3cc([C@H]4CC[C@@H](OC(=O)NC(C)C)C4)[nH]n3)c2c1F [Compound 5]
> 1000	4080	4.1	124	CON(C)Cc1nn2ccnc(Nc3cc([C@H]4CC[C@@H](OC(=O)NC(C)C)C4)[nH]n3)c2c1C [Formate salt of compound 2]
